Test results taken from patent US10604512B2, “3-(1H-indol-2-yl)-1H-indazoles and therapeutic uses thereof” (Samumed, LLC, priority 2015, dated 2020).
pEC50: −log10 of the molar value.

How the values were obtained:
[1] = test system: Primary human fibroblasts derived from IPF patients (LL29 cells) treated with TGF-β1; assay: Inhibition of the fibrotic process: αSMA staining in TGF-β1-treated primary human fibroblasts from IPF patients (LL29 cells); type: cell-based; conditions: Fibroblast, 96 h; for pEC50: % αSMA-positive LL29 cells, TGF-β1 20 ng/mL, 4 days; for inhibition at 10 µM: given where EC50 >10 μM, αSMA, LL29 cells, TGF-β1, 4 days, read-out: percent inhibition at 10 μM
Summary of the method: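 LL29 IPF-patient fibroblasts in 1% FBS stimulated with TGF-β1 (20 ng/mL) and compound (10 μM–1.87 nM, 0.1% DMSO) for 4 days at 37 °C. SYTOX-positive cells excluded; % αSMA-positive cells imaged, normalized to TGF-β1/DMSO wells; EC50 by nonlinear regression, else % inhibition at 10 μM.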

[2] = test system: primary human mesenchymal stem cells (hMSCs); assay: Induction of chondrogenesis in primary human mesenchymal stem cells (nodule imaging, Rhodamine B / Nile Red); type: cell-based; conditions: for EC50: concentration required to induce 50% levels of chondrogenesis vs TGF-β3 positive control, read-out: Conc (nM) of 50% TGF-β3 activity; for Emax: maximum chondrogenesis activity relative to TGF-β3 (10 ng/mL) positive control, read-out: Max. Activity as % TGF-β3 activity
Method: Representative compounds were screened using primary human mesenchymal stem cells (hMSCs) to determine their ability to induce chondrogenesis (process by which cartilage is developed).
Primary human mesenchymal stem cells (hMSCs) were purchased from Lonza (Walkersville, Md.) and expanded in Mesenchymal Stem Cell Growth Media (Lonza). Cells between passage 3 and 6 were used for the experiments.
Each compound was dissolved in DMSO as a 10 mM stock and used to prepare compound source plates. For the 96 well assay, serial dilution (1:3, 6-point dose-response curves from 2700 nM to 10 nM) and compound transfer was performed using the ECHO 550 (Labcyte, Sunnyvale, Calif.) into 96-well clear bottom assay plates (Greiner Bio-One) with appropriate DMSO backfill for a final DMSO concentration of 0.03%. hMSCs were plated at 20,000 cells/well in 250 μL/well Incomplete Chondrogenic Induction Medium (Lonza; DMEM, dexamethasone, ascorbate, insulin-transferrin-selenium [ITS supplement], gentamycin-amphotericin [GA-1000], sodium pyruvate, proline and L-glutamine). TGF-β3 (10 ng/mL) was used as a positive control for differentiation while negative control wells were treated with 75 nL DMSO for normalization and calculating EC50 values. For the 384 well assay, serial dilution (1:3, 8-point dose-response curves from 5000 nM to 2.2 nM) and compound transfer was performed using the ECHO 550 (Labcyte, Sunnyvale, Calif.) into 384-well clear bottom assay plates (Greiner Bio-One) with appropriate DMSO backfill for a final DMSO concentration of 0.03%. hMSCs were plated at 8,000 cells/well in 80 μL/well Incomplete Chondrogenic Induction Medium (Lonza; DMEM, dexamethasone, ascorbate, insulin-transferrin-selenium [ITS supplement], gentamycin-amphotericin [GA-1000], sodium pyruvate, proline and L-glutamine). TGF-β3 (10 ng/mL) was used as a positive control for differentiation while negative control wells were treated with 25 nL DMSO for normalization and calculating EC50 values. Cells were incubated at 37° C. and 5% CO2 for 6 days. To image chondrogenic nodules, the cells were fixed using 4% formaldehyde (Electron Microscopy Sciences), and stained with 2 μg/mL Rhodamine B (Sigma-Aldrich) and 20 μM Nile Red (Sigma-Aldrich) [Johnson K., et. al, A Stem CellBased Approach to Cartilage Repair, Science, (2012), 336(6082), 717-721]. The nodules imaged (25 images per well for 96 well plates and 9 images per well for 384 well plates at 10× magnification) by excitation at 531 nm and emission at 625 nm and quantified using the CellInsight CX5 (Thermo Scientific). Area of nodules in each well was normalized to the average of 3 DMSO treated wells on the same plate using Excel (Microsoft Inc.). The normalized averages (fold change over DMSO) of 2 or 3 replicate wells for each compound concentration were calculated. Due to solubility limitations of some of the compounds, curve fitting was incomplete leading to inaccurate EC50 determinations.
Using TGF-β3 as a positive control, the concentration of representative compounds required to induce 50% levels of chondrogenesis is reported. In addition, the maximum activity of each compound and the respective dose that each compound reached maximum chondrogenesis activity is reported.

Row | EC50 [2] [nM] | SMILES | pEC50 [1] | Emax [2] [%] | inhibition at 10 µM [1] [%]
1 | 10 | c1cncc(-c2cccc3[nH]c(-c4n[nH]c5ccc(-c6cncnc6)cc45)cc23)c1 [Compound 111, 3-(4-(Pyridin-3-yl)-1H-indol-2-yl)-5-(pyrimidin-5-yl)-1H-indazole] | 6.07 | 202 | –
2 | 10 | CCC(=O)Nc1cncc(-c2ccc3[nH]nc(-c4cc5c(-c6cccnc6)cccc5[nH]4)c3c2)c1 [Compound 85, N-(5-(3-(4-(Pyridin-3-yl)-1H-indol-2-yl)-1H-indazol-5-yl)pyridin-3-yl) propionamide] | 7.18 | 197 | –
3 | 100 | CN1CCN(c2cccc3[nH]c(-c4n[nH]c5ccc(-c6cncc(NC(=O)C7CCCC7)c6)cc45)cc23)CC1 [Compound 246, N-(5-(3-(4-(4-Methylpiperazin-1-yl)-1H-indol-2-yl)-1H-indazol-5-yl)pyridin-3-yl)cyclopentanecarboxamide] | 5.59 | 185 | –
4 | 10 | CCNCc1cncc(-c2ccc3[nH]nc(-c4cc5ccccc5[nH]4)c3c2)c1 [Compound 258, N-((5-(3-(1H-Indol-2-yl)-1H-indazol-5-yl)pyridin-3-yl)methyl)ethanamine] | 6.63 | 532 | –
5 | 100 | CN1CCN(c2cccc3[nH]c(-c4n[nH]c5ccc(-c6cncc(CN7CCCCC7)c6)cc45)cc23)CC1 [Compound 239, 3-(4-(4-Methylpiperazin-1-yl)-1H-indol-2-yl)-5-(5-(piperidin-1-ylmethyl)pyridin-3-yl)-1H-indazole] | < 5.00 | 198 | 21.1
6 | 30 | CCC(=O)Nc1cncc(-c2ccc3[nH]nc(-c4cc5c(N6CCCCC6)cccc5[nH]4)c3c2)c1 [Compound 169, N-(5-(3-(4-(Piperidin-1-yl)-1H-indol-2-yl)-1H-indazol-5-yl)pyridin-3-yl) propionamide] | 5.99 | 171 | –
7 | 10 | CS(=O)(=O)NCc1cc(F)cc(-c2cccc3[nH]c(-c4n[nH]c5ccc(-c6cncnc6)cc45)cc23)c1 [Compound 503, N-(3-Fluoro-5-(2-(5-(pyrimidin-5-yl)-1H-indazol-3-yl)-1H-indol-4-yl)benzyl) methanesulfonamide] | 6.51 | 194 | –
8 | 10 | c1ccc(-c2cccc3[nH]c(-c4n[nH]c5ccc(-c6cncnc6)cc45)cc23)nc1 [Compound 167, 3-(4-(Pyridin-2-yl)-1H-indol-2-yl)-5-(pyrimidin-5-yl)-1H-indazole] | 5.92 | 203 | –
9 | 30 | CCNCc1cncc(-c2ccc3[nH]nc(-c4cc5c(-c6ccncc6)cccc5[nH]4)c3c2)c1 [Compound 118, N-((5-(3-(4-(Pyridin-4-yl)-1H-indol-2-yl)-1H-indazol-5-yl)pyridin-3-yl)methyl)ethanamine] | 6.05 | 199 | –
10 | 10 | O=C(Nc1cncc(-c2ccc3[nH]nc(-c4cc5c(N6CCCCC6)cccc5[nH]4)c3c2)c1)C1CC1 [Compound 188, N-(5-(3-(4-(Piperidin-1-yl)-1H-indol-2-yl)-1H-indazol-5-yl)pyridin-3-yl) cyclopropanecarboxamide] | 5.24 | 183 | –
11 | 30 | Fc1ccc(-c2cccc3[nH]c(-c4n[nH]c5ccc(-c6cncc(CN7CCCC7)c6)cc45)cc23)cc1 [Compound 42, 3-(4-(4-Fluorophenyl)-1H-indol-2-yl)-5-(5-(pyrrolidin-1-ylmethyl)pyridin-3-yl)-1H-indazole] | 5.68 | 197 | –
12 | 30 | FC1(F)CCN(Cc2cncc(-c3ccc4[nH]nc(-c5cc6c(N7CCCCC7)cccc6[nH]5)c4c3)c2)C1 [Compound 194, 5-(5-((3,3-Difluoropyrrolidin-1-yl)methyl)pyridin-3-yl)-3-(4-(piperidin-1-yl)-1H-indol-2-yl)-1H-indazole] | 5.88 | 160 | –
13 | 10 | c1cncc(-c2cccc3[nH]c(-c4n[nH]c5ccc(-c6cncc(CN7CCCCC7)c6)cc45)cc23)c1 [Compound 99, 5-(5-(Piperidin-1-ylmethyl)pyridin-3-yl)-3-(4-(pyridin-3-yl)-1H-indol-2-yl)-1H-indazole] | < 5.00 | 212 | –
14 | 30 | CC(C)C(=O)Nc1cncc(-c2ccc3[nH]nc(-c4cc5c(-c6cccnc6)cccc5[nH]4)c3c2)c1 [Compound 93, N-(5-(3-(4-(Pyridin-3-yl)-1H-indol-2-yl)-1H-indazol-5-yl)pyridin-3-yl) isobutyramide] | 5.91 | 199 | –
15 | 100 | CN1CCN(c2cccc3[nH]c(-c4n[nH]c5ccc(-c6cncc(N)c6)cc45)cc23)CC1 [Compound 227, 5-(3-(4-(4-Methylpiperazin-1-yl)-1H-indol-2-yl)-1H-indazol-5-yl)pyridin-3-amine] | 5.40 | 166 | –
16 | 10 | c1ccc(-c2cccc3[nH]c(-c4n[nH]c5ccc(-c6cncc(CN7CCCC7)c6)cc45)cc23)nc1 [Compound 154, 3-(4-(Pyridin-2-yl)-1H-indol-2-yl)-5-(5-(pyrrolidin-1-ylmethyl)pyridin-3-yl)-1H-indazole] | 6.65 | 180 | –
17 | 10 | CN(C)Cc1cncc(-c2ccc3[nH]nc(-c4cc5c(N6CCCCC6)cccc5[nH]4)c3c2)c1 [Compound 181, N,N-Dimethyl-1-(5-(3-(4-(piperidin-1-yl)-1H-indol-2-yl)-1H-indazol-5-yl)pyridin-3-yl)methanamine] | 5.32 | 205 | –
18 | 30 | CN(C)Cc1cncc(-c2ccc3[nH]nc(-c4cc5c(-c6cccs6)cccc5[nH]4)c3c2)c1 [Compound 349, N,N-Dimethyl-1-(5-(3-(4-(thiophen-2-yl)-1H-indol-2-yl)-1H-indazol-5-yl)pyridin-3-yl)methanamine] | 5.94 | 181 | –
19 | 10 | Cc1ccncc1-c1ccc2[nH]nc(-c3cc4c(-c5ccncc5)cccc4[nH]3)c2c1 [Compound 117, 5-(4-Methylpyridin-3-yl)-3-(4-(pyridin-4-yl)-1H-indol-2-yl)-1H-indazole] | < 5.00 | 190 | 17.7
20 | 100 | CN1CCN(c2cccc3[nH]c(-c4n[nH]c5ccc(-c6cncnc6)cc45)cc23)CC1 [Compound 251, 3-(4-(4-Methylpiperazin-1-yl)-1H-indol-2-yl)-5-(pyrimidin-5-yl)-1H-indazole] | 5.52 | 165 | –
21 | 100 | CC(C)C(=O)Nc1cncc(-c2ccc3[nH]nc(-c4cc5c(N6CCN(C)CC6)cccc5[nH]4)c3c2)c1 [Compound 233, N-(5-(3-(4-(4-Methylpiperazin-1-yl)-1H-indol-2-yl)-1H-indazol-5-yl)pyridin-3-yl)isobutyramide] | 5.88 | 196 | –
22 | 30 | CN(C)Cc1cncc(-c2ccc3[nH]nc(-c4cc5c(-c6ccncc6)cccc5[nH]4)c3c2)c1 [Compound 125, N,N-dimethyl-1-(5-(3-(4-(Pyridin-4-yl)-1H-indol-2-yl)-1H-indazol-5-yl)pyridin-3-yl)methanamine] | 5.90 | 191 | –
